Measured values as given in the supplement of paper PMC13380429.

Key:
Conditions in all cases: 72 h
[1] = tested on: Calu-3; assay: drug sensitivity score (DSS) for viability; higher = more toxic; extreme values may be limits of the assay
[2] = tested on: HepG2; assay: as above
[3] = tested on: Calu-3; assay: cell viability relative to DMSO; higher = less toxic
[4] = tested on: HepG2; assay: as above
[5] = tested on: Calu-3; assay: relative viability EC50 (midpoint between 100% and the lowest measured viability); higher = less toxic
[6] = tested on: HepG2; assay: as above
[7] = tested on: Vero E6; assay: drug sensitivity score (DSS) for viability; higher = more toxic; extreme values may be limits of the assay
[8] = tested on: U2OS; assay: as above
[9] = tested on: Vero E6; assay: cell viability relative to DMSO; higher = less toxic
[10] = tested on: U2OS; assay: as above
[11] = tested on: Vero E6; assay: relative viability EC50 (midpoint between 100% and the lowest measured viability); higher = less toxic
[12] = tested on: U2OS; assay: as above
[13] = tested on: Caco-2; assay: drug sensitivity score (DSS) for viability; higher = more toxic; extreme values may be limits of the assay
[14] = tested on: Caco-2; assay: cell viability relative to DMSO; higher = less toxic
[15] = tested on: Caco-2; assay: relative viability EC50 (midpoint between 100% and the lowest measured viability); higher = less toxic

Compound	drug sensitivity score [1]	drug sensitivity score [2]	cell viability ([3]; 1 nM) [%]	cell viability ([3]; 10 nM) [%]	cell viability ([3]; 100 nM) [%]	cell viability ([3]; 1000 nM) [%]	cell viability ([3]; 10000 nM) [%]	cell viability ([4]; 1 nM) [%]	cell viability ([4]; 10 nM) [%]	cell viability ([4]; 100 nM) [%]	cell viability ([4]; 1000 nM) [%]	cell viability ([4]; 10000 nM) [%]	relative viability EC50 [5] [µM]	relative viability EC50 [6] [µM]	drug sensitivity score [7]	drug sensitivity score [8]	cell viability ([9]; 1 nM) [%]	cell viability ([9]; 10 nM) [%]	cell viability ([9]; 100 nM) [%]	cell viability ([9]; 1000 nM) [%]	cell viability ([9]; 10000 nM) [%]	cell viability ([10]; 1 nM) [%]	cell viability ([10]; 10 nM) [%]	cell viability ([10]; 100 nM) [%]	cell viability ([10]; 1000 nM) [%]	cell viability ([10]; 10000 nM) [%]	relative viability EC50 [11] [µM]	relative viability EC50 [12] [µM]	drug sensitivity score [13]	cell viability ([14]; 1 nM) [%]	cell viability ([14]; 10 nM) [%]	cell viability ([14]; 100 nM) [%]	cell viability ([14]; 1000 nM) [%]	cell viability ([14]; 10000 nM) [%]	relative viability EC50 [15] [µM]
NC(=O)c1nc(F)cnc1O [Favipiravir]	0	0	101	93.2	92.5	94.6	107	104	102	109	91.8	98.2	> 10	> 10	–	–	–	–	–	–	–	–	–	–	–	–	–	–	–	–	–	–	–	–	–
Oc1cc2c(cc1O)C(c1ccccc1)CNCC2 (stereo not given)	2.2	0	77.4	103	78.6	99.6	78	110	104	108	91.8	107	> 10	> 10	0	0	104	98.2	103	96.9	106	102	102	97.3	104	99	> 10	> 10	–	–	–	–	–	–	–
Cc1cc(CCC[C@H](CC(=O)NO)C(=O)N[C@H](C(=O)N[C@H](C)c2ccccc2)C(C)(C)C)ccc1-c1ccccc1	1.1	3.1	101	90.9	91.8	94.8	77.5	110	116	99.6	106	35.1	> 10	3.6	1.9	2.9	103	104	99.9	97	67.5	99.1	102	97.3	99.6	46.7	–	3.12	2.6	105	95.2	110	99.4	51.4	–
O=C(O)/C=C(/CC(=O)O)C(=O)O [cis-aconitic-acid]	–	0	–	–	–	–	–	105	105	91.6	113	98.9	–	> 10	0	0	99	103	94.9	97.8	109	98.3	99.1	101	96.7	103	> 10	> 10	0	88.4	97.1	98.6	90	93.4	> 10
CCCCCCOc1ccccc1C(N)=O [exalamide]	0	0	106	115	107	98.3	113	110	96.1	95.9	109	90	> 10	> 10	0	0	110	105	102	105	86.9	95.6	92.7	101	93.1	94.3	> 10	> 10	–	–	–	–	–	–	–
NCC1(CC(=O)O)CCCCC1 [gabapentin]	0	0	120	118	100	110	94.4	102	97.6	94.2	89.3	108	> 10	> 10	0	–	96	93.6	89.3	94.3	92.5	–	–	–	–	–	> 10	–	–	–	–	–	–	–	–
CC(=O)c1c(C)c2cnc(Nc3ccc(N4CCNCC4)cn3)nc2n(C2CCCC2)c1=O [palbociclib]	0	9.7	101	90.6	98.4	85.8	92.8	92.5	88.5	80.7	65.9	29.4	> 10	0.525	7.2	3.4	97.9	101	96.4	77.3	26.9	104	94.8	98.8	92.3	57.3	1.4	–	4.5	97.1	90.6	95.6	86.2	50.4	–
